Results as given in patent publication US20050085441A1, “Use of soluble monovalent oligosaccharides as inhibitors of HIV-1 fusion and replication” (priority 2002, published 2005).

Tests used:
[1] = test system: vesicular stomatis virus (VSV) G protein; format: cell-based, vesicular stomatitis virus
[2] = test system: HIV-1 clinical isolate 1936; experiment: Replication of T-tropic clinical isolate 1936 in MT-2 cells (p24 release); format: cell-based
[3] = test system: HIV-1 T-tropic envelope protein of HXB2; format: cell-based; settings: virions with HIV HXB2 envelope protein, MT-2 cells
[4] = test system: HIV-1 laboratory strain NL4.3; experiment: Syncytia formation in MT-2 cells infected with HIV-1 NL4.3; format: cell-based
[5] = test system: HIV-1 M-tropic strain Ba-L; experiment: Replication of M-tropic strain Ba-L in human peripheral blood monocytes (p24 release); settings: 0.5, 5 and 25 mM, MOI 0.001
[6] = test system: HIV-1 laboratory strain NL4.3; experiment: Viral p24 antigen release, HIV-1 NL4.3 in MT-2 cells; format: cell-based; settings: for reduction of production of p24: day 7 post-infection; for effect on release of antigen p24: 0.5-50.0 mM tested, concentration not given
[7] = test system: HIV-1 (strain NL4.3); experiment: HIV-1 replication in vivo in NOD-SCID huPBL mice (p24, viral load in peritoneal wash)
[8] = test system: HIV-2 isolate CBL23; experiment: Replication of HIV-2 clinical isolate CBL23 in MT-2 cells; format: cell-based; settings: single oligosaccharide
Description: The effect of the oligosaccharides was also tested on the replication of CLB23, a T -tropic clinical isolate of HIV-2.

[9] = test system: HIV-1 clinical isolate ME46; experiment: Replication of T-tropic clinical isolate ME46 in MT-2 cells (p24 release)
Description: MT-2 cells were infected as described above, and the course of infection was followed by the release of p24.

SMILES	expression of the luciferase reporter [1]	inhibition of replication of isolate 1936 ([2]; 5 mM and above)	expression of the luciferase reporter [3]	formation of syncytia (number and size) ([4]; 25 mM, MT-2 cells, NL4.3)	size of syncytia (number of nuclei) ([4]; concentrations lower than 25 mM)	inhibition of replication of strain Ba-L (p24 release) [5]	release of antigen p24 ([6]; 5 mM or lower)	reduction of production of p24 ([6]; 25 mM globotriose) [fold]	release of antigen p24 ([6]; 25 mM, effect maximum at days 3 and 7, recovered at day 10 post-infection)	HIV-1 replication (p24 and viral load) ([7]; globotriose 15 mg/mouse i.p. single dose, days 2 and 6 post infection)	HIV-1 replication (p24 and viral load) ([7]; repeat experiment, single dose at beginning of infection, day 6)	inhibition of replication of HIV-2 isolate CBL23 [8]	inhibition of replication of isolate ME46 ([9]; 5 mM and above)	effect on release of antigen p24 [6]	effect on replication of isolate 1936 ([2]; 25 mM)	effect on formation of syncytia ([4]; 0.5-50.0 mM tested, concentration not given)	reduction of production of p24 ([6]; 5 mM lactose) [fold]	effect on replication of isolate ME46 ([9]; 15 mM)	inhibition of replication of isolate ME46 ([9]; 25 mM)
OC[C@H]1O[C@H](O[C@@H]2[C@H](O)[C@@H](O)[C@H](O[C@H]3[C@H](O)[C@@H](O)C(O)O[C@@H]3CO)O[C@@H]2CO)[C@H](O)[C@@H](O)[C@H]1O (stereo partly drawn) [globotriose, galactose α1-4galactose β1-4glucose]	no effect was observed except for the highest concentration	more than ten-fold	inhibited	completely inhibited	decreased	did not inhibit	not at 5 mM or lower	5	inhibited	strongly inhibited	diminished replication	much weaker than for the HIV-1 isolates	more than ten-fold	–	–	–	–	–	–
CC(=O)N[C@H]1[C@H](O[C@H]2[C@@H](O)[C@@H](CO)O[C@@H](O[C@H]3[C@H](O)[C@@H](O)C(O)O[C@@H]3CO)[C@@H]2O)O[C@H](CO)[C@@H](O)[C@@H]1O[C@@H]1O[C@H](CO)[C@H](O)[C@H](O)[C@H]1O (stereo partly shown) [lacto-N-tetraose, reference compound]	–	–	–	–	–	ineffective	–	–	–	–	–	–	–	ineffective	–	–	–	–	–
OC[C@H]1O[C@@H](O[C@H]2[C@H](O)[C@@H](O)[C@H](O)O[C@@H]2CO)[C@H](O)[C@@H](O)[C@H]1O [lactose, o-β-D-galactopyranosyl-(1-4)-β-D-glucopyranose]	no effect was observed	–	inhibited	–	–	ineffective	–	–	–	–	–	basically non-effective	–	less potent than globotriose	practically did not affect	weaker than that exhibited by globotriose	2	minor effect	ten-fold
